Measurements as given in US20220267258A1, “ROBENIDINE ANALOGS AS POTENT ANTIMALARIALS AGAINST DRUG-RESISTANT PLASMODIUM FALCIPARUM” (OREGON HEALTH & SCIENCE UNIVERSITY, priority 2021, published 2022).
Structures can show the parent of a compound that is named as a salt. Where two headings read alike, the source gives them in different places.

Tests used:
[1] = tested on: P. falciparum strain D6; assay: SYBR Green growth inhibition assay, P. falciparum D6; assay type: cell-based, Plasmodium falciparum; conditions: read-out: IC50 D6
Description: The in vitro activity of each compound in the aminoguanidine library was assessed against asynchronous cultures of Plasmodium falciparum parasites replicating within human erythrocytes (Tables 1-3). As the chemical development of robenidine was not discussed in its original publication in 1970^4 and limited structural information is available regarding its mechanism of action,^10 profiling was guided primarily by in vitro potency against the P. falciparum D6 strain cultured in human erythrocytes as described above.
(§1) The following parasite strains were used in this study and obtained through BEI Resources, NIAID, NIH. […] The culture medium used was RPMI-1640, supplemented with 25 mM HEPES buffer, 25 mg/L gentamicin sulfate, 45 mg/L hypoxanthine, 10 mM glucose, 2 mM glutamine, and 0.5% Albumax II (complete medium).^43 Cultures were maintained in a standard low oxygen atmosphere (5% O2, 5% CO2, 90% N2) in an environmental chamber and incubated at 37° C. Cultures were sub-passaged every 3-4 days into a fresh culture flask containing complete media and erythrocytes.
The aminoguanidine series was assessed for in vitro antiplasmodial activity using the fluorescence-based SYBR Green assay described previously by Smilkstein and co-workers.^38 Compounds were evaluated in quadruplicate in flat-bottomed Costar clear 96-well plates (Model #3585). A two-fold serial dilution of each compound was performed across the columns of the test plates starting with 20 μM and ending with a final untreated column to serve as control wells. Asynchronous parasite infected erythrocytes in growth media were added to each well for a total volume of 100 μL, final hematocrit of 2%, and initial parasitemia of 0.2%. […] Test plates were incubated for 72 hr at 37° C. in an environmental chamber with a controlled low oxygen atmosphere (5% O2, 5% CO2, 90% N2). After the incubation period, 100 μL SYBR Green I dye-detergent solution was added to each well, and the plates were incubated at ambient temperature and atmosphere in the dark for at least one hour. Fluorescence was read at 497 nm excitation and 520 nm emission bands using a Spectramax iD3 plate reader. Fluorescence readings were normalized with respect to the untreated control wells representing normal parasite growth and plotted against the logarithm of drug concentration.

[2] = tested on: P. falciparum Dd2; assay: SYBR Green growth inhibition assay, P. falciparum Dd2; assay type: cell-based, Plasmodium falciparum; conditions: read-out: IC50 Dd2
Description: (§2) In addition to the drug-sensitive P. falciparum D6 strain, the aminoguanidines were assessed against three drug-resistant strains (Tables 1-3).
as §1
(§3) The aminoguanidine series was assessed for in vitro antiplasmodial activity using the fluorescence-based SYBR Green assay described previously by Smilkstein and co-workers.^38 Compounds were evaluated in quadruplicate in flat-bottomed Costar clear 96-well plates (Model #3585). A two-fold serial dilution of each compound was performed across the columns of the test plates starting with 20 μM and ending with a final untreated column to serve as control wells. Asynchronous parasite infected erythrocytes in growth media were added to each well for a total volume of 100 μL, final hematocrit of 2%, and initial parasitemia of 0.2%. The commercial malaria drugs atovaquone and chloroquine were used as control drugs. Test plates were incubated for 72 hr at 37° C. in an environmental chamber with a controlled low oxygen atmosphere (5% O2, 5% CO2, 90% N2). After the incubation period, 100 μL SYBR Green I dye-detergent solution was added to each well, and the plates were incubated at ambient temperature and atmosphere in the dark for at least one hour. Fluorescence was read at 497 nm excitation and 520 nm emission bands using a Spectramax iD3 plate reader. Fluorescence readings were normalized with respect to the untreated control wells representing normal parasite growth and plotted against the logarithm of drug concentration.

[3] = tested on: P. falciparum Tm90-C2B; assay: SYBR Green growth inhibition assay, P. falciparum Tm90-C2B; assay type: cell-based, Plasmodium falciparum; conditions: read-out: IC50 Tm90-C2B
Description: as §2, §1, §3

[4] = tested on: P. falciparum A6; assay: SYBR Green growth inhibition assay, P. falciparum A6; assay type: cell-based, Plasmodium falciparum; conditions: read-out: IC50 A6
Description: as §2, §1, §3

[5] = HepG2 cytotoxicity assay (resazurin); assay type: cell-based, human; conditions: human, HepG2 cells; HepG2, 24 hr drug, 24 hr recovery
Description: (§4) In this assay, HepG2 cells were incubated with test compounds for 24 hours, followed by a 24-hour recovery period and subsequent staining to evaluate for cytotoxic effects with resazurin. The ratio of the resulting HepG2 IC50 value to the P. falciparum D6 IC50 value can be considered an ‘in vitro therapeutic index,’ or IVTI.
(§5) Compounds were prepared as 10 mM stock solutions in DMSO. […] HepG2 cells were added to each well of flat bottom 96-well tissue culture plates at an initial density of 2×10^4 cells per well, and an initial volume of 160 μL complete medium per well. After an overnight incubation at 37° C. to adhere the cells to the culture plates, 40 μL drug solutions in complete medium were applied to each well at a final concentration range of 0 to 200 μM across each plate. Drugs were tested in triplicate or quadruplicate. The cells were incubated for 24 hours at 37° C. and 5% CO2 with the drug solutions, which were then aspirated and replaced with 200 μL per well of complete medium for an additional 24 hour incubation under the same conditions. To each well was added 20 μL of resazurin (Alamar Blue) in PBS buffer to a final concentration of 10 μM, and the plates were incubated for 3 hours. Fluorescence was measured at 560 nm excitation and 590 nm emission bands using a Spectramax iD3 plate reader. Fluorescence readings were normalized with respect to the untreated control wells and plotted against the logarithm of drug concentration.

[6] = tested on: human hepatoma derived HepG2 cells; assay: HepG2 cytotoxicity assay (resazurin); assay type: cell-based; conditions: HepG2, 24 hr drug, 24 hr recovery
Description: as §4, §5

[7] = Plasmodium falciparum, D6, Erythrocyte, 72 h
[8] = Plasmodium falciparum, DD2, 72 h
[9] = Plasmodium falciparum, TM90, 72 h
[10] = pan-sensitive strain, 72 hr, asynchronous cultures in human erythrocytes
[11] = multi-drug resistant strain, 72 hr
[12] = multi-drug resistant clinical isolate, also atovaquone resistant, 72 hr
[13] = mutant line resistant to respiratory antagonists, 72 hr

Row | Compound | IC50 [1, 7] [µM] | IC50 [2, 8] [µM] | IC50 [3, 9] [µM] | IC50 ([4]; Plasmodium falciparum, 72 h) [µM] | IC50 at 24 h [5] [µM] | IC50 [1, 10] [µM] | IC50 [2, 11] [µM] | IC50 [3, 12] [µM] | IC50 [4, 13] [µM] | IC50 [6] [µM] | IC50 ([1]; Plasmodium falciparum, D6, Erythrocyte, pan-sensitive strain, 72 hr, asynchronous cultures in human erythrocytes) [µM]
1 | N=C(N/N=C/c1cccc(Br)c1)N/N=C/c1cccc(Br)c1 [Compound 8] | 0.572 | 1.52 | 1.84 | 0.502 | 62 |  |  |  |  |  | 
2 | Cc1ccc(/C=N/NC(=N)N/N=C/c2ccc(C)cc2)cc1 [Compound 10] | 0.905 | 2.43 | 2.53 | > 5 | 43 |  |  |  |  |  | 
3 | COc1ccc(/C=N/NC(=N)N/N=C/c2ccc(OC)cc2)cc1 [Compound 11] | 0.263 | 1.6 | > 5 | 0.289 | > 200 |  |  |  |  |  | 
4 | N=C(N/N=C/c1ccccc1F)N/N=C/c1ccccc1F [Compound 2] | 2.87 | 4.59 | > 5 | 1.89 | > 200 |  |  |  |  |  | 
5 | N#Cc1ccccc1/C=N/NC(=N)N/N=C/c1ccccc1C#N [Compound 20] | 1.02 | 2.1 | 1.99 | 0.969 | 31 |  |  |  |  |  | 
6 | N=C(N/N=C/c1ccc(OC(F)F)cc1)N/N=C/c1ccc(OC(F)F)cc1 [Compound 18] | 0.071 | 0.191 | 0.193 | 0.087 | 19 |  |  |  |  |  | 
7 | N=C(N/N=C/c1ccc(-c2ccccc2)cc1)N/N=C/c1ccc(-c2ccccc2)cc1 [Compound 26] | 0.015 | 0.087 | 0.071 | 0.033 | > 200 |  |  |  |  |  | 
8 | N=C(N/N=C/c1ccccc1)N/N=C/c1ccccc1F [Compound 38] | 1.03 | 2.2 | > 5 | 0.833 | > 200 |  |  |  |  |  | 
9 | N=C(NN=Cc1ccc(S(N)(=O)=O)cc1)NN=Cc1ccc(S(N)(=O)=O)cc1 [Compound 31] |  |  |  |  |  | > 5 | > 5 | > 5 | > 5 | > 200 | 
10 | N=C(NN=Cc1ccc([N+](=O)[O-])cc1)NN=Cc1ccc([N+](=O)[O-])cc1 [Compound 27] |  |  |  |  |  | 0.096 | 0.198 | 0.247 | 0.085 | > 200 | 
11 | N=C(N/N=C/c1ccc(O)cc1)N/N=C/c1ccc(O)cc1 [Compound 25] | 0.143 | 0.24 | 0.286 | 0.278 | 39 |  |  |  |  |  | 
12 | N=C(NN=Cc1ccc2c(c1)OC(F)(F)O2)NN=Cc1ccc2c(c1)OC(F)(F)O2 [Compound 36, 2,2′-Bis{[4-(2,2-difluoro-2,3-dioxazolo)]phenyl}methylene]carbonimidic Dihydrazide Hydrochloride] |  |  |  |  |  | 0.25 | 0.8 | 0.905 | 0.235 | > 200 | 
13 | N=C(N/N=C/c1ccc(Br)cc1)N/N=C/c1ccc(Br)cc1 [Compound 9] | 0.277 | 0.876 | 0.899 | 0.269 | 38 |  |  |  |  |  | 
14 | N=C(N/N=C/c1cccc(Cl)c1)N/N=C/c1cccc(Cl)c1 [Compound 6] | 0.202 | 0.567 | 0.664 | 0.237 | 35 |  |  |  |  |  | 
15 | CC#COc1ccc(/C=N/NC(=N)N/N=C/c2ccc(OC#CC)cc2)cc1 [Compound 32] | 0.102 | 0.199 | 0.376 | 0.153 | > 200 |  |  |  |  |  | 
16 | CN(C)c1ccc(/C=N/NC(=N)N/N=C/c2ccc(N(C)C)cc2)cc1 [Compound 28] | 0.118 | 0.264 | 0.213 | 0.122 | 20 |  |  |  |  |  | 
17 | N=C(N/N=C/c1ccc(N2CCOCC2)cc1)N/N=C/c1ccc(N2CCOCC2)cc1 [Compound 33] | 0.131 | 0.329 | 0.295 | 0.116 | > 200 |  |  |  |  |  | 
18 | N=C(N/N=C/c1cccc(F)c1)N/N=C/c1cccc(F)c1 [Compound 3] | 0.767 | > 5 | > 5 | 0.426 | 49 |  |  |  |  |  | 
19 | N=C(N/N=C/c1cccc(OC(F)(F)F)c1)N/N=C/c1cccc(OC(F)(F)F)c1 [Compound 15] | 0.67 | 1.57 | 2.99 | 0.689 | 61 |  |  |  |  |  | 
20 | N=C(N/N=C/c1ccc(C(F)(F)F)cc1)N/N=C/c1ccc(C(F)(F)F)cc1 [Compound 12] | 0.614 | 1.54 | 2.74 | 0.567 | 40 |  |  |  |  |  | 
21 | N=C(N/N=C/c1ccccc1OC(F)(F)F)N/N=C/c1ccccc1OC(F)(F)F [Compound 14] | 1.08 | 2.33 | > 5 | 0.391 | 156 |  |  |  |  |  | 
22 | N=C(N/N=C/c1ccccc1Br)N/N=C/c1ccccc1Br [Compound 7] | 0.28 | 0.715 | 0.974 | 0.876 | 94 |  |  |  |  |  | 
23 | N=C(N/N=C/c1ccccc1Cl)N/N=C/c1ccccc1Cl [Compound 5] | 0.334 | 0.961 | 1.22 | 0.348 | > 200 |  |  |  |  |  | 
24 | N=C(N/N=C/c1ccc(F)cc1)N/N=C/c1ccc(F)cc1 [Compound 4] | 1.02 | 3.79 | 4.9 | 0.369 | 24 |  |  |  |  |  | 
25 | N=C(N/N=C/c1ccccc1)N/N=C/c1ccccc1 [Compound 24] | 0.705 | 4.3 | > 5 | 0.581 | > 200 |  |  |  |  |  | 
26 | O=C1C(O)=C([C@H]2CC[C@H](c3ccc(Cl)cc3)CC2)C(=O)c2ccccc21 [Atovaquone, reference compound] |  | < 0.001 | > 5 | > 5 |  |  |  |  |  | 72 | < 0.001
